From article PMC9805530 (European journal of medicinal chemistry, 2022)

Legend:
Sirt6 [1] = target: T1, Sirt6 (Homo sapiens, UniProt Q8N6T7); format: biochemical; conditions: 100 μM, 30 °C, 60 minutes
Sirt5 = target: T2, Sirt5 (Homo sapiens, UniProt Q9NXA8); test: Fluorogenic Sirt5 Assay Kit; format: biochemical; conditions: 100 μM compounds, 37 °C 30 min
T2 sequence (Q9NXA8 37-310): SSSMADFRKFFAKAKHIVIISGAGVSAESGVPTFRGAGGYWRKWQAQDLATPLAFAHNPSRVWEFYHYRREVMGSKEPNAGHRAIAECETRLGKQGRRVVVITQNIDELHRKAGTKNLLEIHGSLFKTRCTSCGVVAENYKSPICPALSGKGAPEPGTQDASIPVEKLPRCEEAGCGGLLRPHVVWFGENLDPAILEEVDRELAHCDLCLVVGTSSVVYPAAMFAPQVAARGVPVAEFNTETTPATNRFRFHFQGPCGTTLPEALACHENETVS

Sirt6 [2] = target: T1, Sirt6; test: Sirt6-dependent peptide deacetylation, Fluor de Lys; conditions: Fig. 3A
BV2 cells = test: LPS-induced inflammatory gene mRNA expression; conditions: 30 μM pretreatment 30 minutes, 100 ng/mL LPS 6 hours
Sirt3 [3] = target: T3, Sirt3 (Homo sapiens, UniProt Q9NTG7); test: Sirt3 deacetylation Activity Assay Kit; conditions: time course, Fig. 3
T3 sequence (Q9NTG7 1-399): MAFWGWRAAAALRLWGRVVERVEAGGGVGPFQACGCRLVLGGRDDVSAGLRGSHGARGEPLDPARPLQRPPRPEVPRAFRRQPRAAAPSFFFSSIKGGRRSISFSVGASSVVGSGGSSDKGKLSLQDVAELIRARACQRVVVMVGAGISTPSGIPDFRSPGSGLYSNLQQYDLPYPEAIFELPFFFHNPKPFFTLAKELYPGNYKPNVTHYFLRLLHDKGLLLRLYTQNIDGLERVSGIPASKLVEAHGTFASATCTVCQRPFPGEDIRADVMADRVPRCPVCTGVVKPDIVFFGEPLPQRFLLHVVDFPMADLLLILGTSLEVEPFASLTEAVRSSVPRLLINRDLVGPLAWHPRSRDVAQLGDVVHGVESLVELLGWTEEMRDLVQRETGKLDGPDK

Sirt1 [4] = target: T4, Sirt1 (Homo sapiens, UniProt Q96EB6); test: Sirt1 deacetylation Activity Assay Kit; conditions: time course, Fig. 3
T4 sequence (Q96EB6 1-747): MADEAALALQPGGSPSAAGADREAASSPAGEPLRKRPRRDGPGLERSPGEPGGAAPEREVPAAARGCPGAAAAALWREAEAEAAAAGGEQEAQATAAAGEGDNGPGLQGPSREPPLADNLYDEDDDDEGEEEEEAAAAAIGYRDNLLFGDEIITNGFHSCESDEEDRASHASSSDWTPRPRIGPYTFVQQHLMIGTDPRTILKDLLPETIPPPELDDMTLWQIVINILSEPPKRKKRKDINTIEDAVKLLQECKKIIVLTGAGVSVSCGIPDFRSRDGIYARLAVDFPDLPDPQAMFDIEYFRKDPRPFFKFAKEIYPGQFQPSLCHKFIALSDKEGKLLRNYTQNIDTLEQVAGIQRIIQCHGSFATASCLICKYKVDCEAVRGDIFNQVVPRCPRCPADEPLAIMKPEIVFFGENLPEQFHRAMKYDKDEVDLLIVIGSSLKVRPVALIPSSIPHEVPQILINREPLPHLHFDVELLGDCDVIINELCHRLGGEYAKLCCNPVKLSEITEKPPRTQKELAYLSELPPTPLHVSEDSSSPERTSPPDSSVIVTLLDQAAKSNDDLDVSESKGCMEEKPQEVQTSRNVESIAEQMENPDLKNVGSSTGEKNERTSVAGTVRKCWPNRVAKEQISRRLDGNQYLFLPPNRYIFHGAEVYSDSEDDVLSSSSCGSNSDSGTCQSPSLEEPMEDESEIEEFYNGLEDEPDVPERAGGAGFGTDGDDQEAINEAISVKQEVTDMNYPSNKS

Sirt2 [5] = target: T5, Sirt2 (Homo sapiens, UniProt Q8IXJ6); test: Sirt2 deacetylation Activity Assay Kit; conditions: time course, Fig. 3
T5 sequence (Q8IXJ6 1-389): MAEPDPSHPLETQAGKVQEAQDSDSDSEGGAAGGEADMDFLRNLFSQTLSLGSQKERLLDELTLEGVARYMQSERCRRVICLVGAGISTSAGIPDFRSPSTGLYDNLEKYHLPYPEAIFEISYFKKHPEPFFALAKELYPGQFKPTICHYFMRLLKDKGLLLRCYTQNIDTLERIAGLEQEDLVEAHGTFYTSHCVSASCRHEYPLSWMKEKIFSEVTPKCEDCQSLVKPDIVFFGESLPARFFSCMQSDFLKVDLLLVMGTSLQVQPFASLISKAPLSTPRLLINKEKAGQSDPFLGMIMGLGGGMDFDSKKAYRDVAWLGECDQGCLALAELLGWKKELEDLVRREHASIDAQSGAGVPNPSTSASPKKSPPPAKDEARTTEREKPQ

Sirt1 [6] = target: T4, Sirt1; conditions: cited from earlier work
Sirt2 [7] = target: T5, Sirt2; conditions: cited from earlier work
Sirt3 [8] = target: T3, Sirt3; conditions: cited from earlier work

T1 sequence (Q8N6T7 whole entry): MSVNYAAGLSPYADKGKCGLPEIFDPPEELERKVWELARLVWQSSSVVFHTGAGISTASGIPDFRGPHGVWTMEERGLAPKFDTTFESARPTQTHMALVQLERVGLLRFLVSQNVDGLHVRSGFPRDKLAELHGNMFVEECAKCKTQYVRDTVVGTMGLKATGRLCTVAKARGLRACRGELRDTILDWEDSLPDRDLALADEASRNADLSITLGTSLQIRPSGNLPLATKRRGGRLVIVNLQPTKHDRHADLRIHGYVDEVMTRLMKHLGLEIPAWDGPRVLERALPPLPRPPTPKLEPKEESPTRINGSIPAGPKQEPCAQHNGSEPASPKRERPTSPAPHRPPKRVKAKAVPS

acetylation of H3K9 in the nucleosome test (Sirt6 [1])	effect on Sirt5 desuccinylation activity (Sirt5)	effect on Sirt6 activity (time course) (Sirt6 [2])	effect on Sirt3 deacetylation activity (Sirt3 [3])	effect on Sirt1 deacetylation activity (Sirt1 [4])	effect on Sirt2 deacetylation activity (Sirt2 [5])	Structure (SMILES)	ICAM-1 induction (BV2 cells)	LPS-induced expression of IL-1β (BV2 cells)	LPS-induced expression of IL-6 (BV2 cells)	LPS-induced expression of MCP-1 (BV2 cells)	LPS-induced expression of TNFα (BV2 cells)	effect on basal Sirt1 deacetylation activity (Sirt1 [6])	effect on basal Sirt2 deacetylation activity (Sirt2 [7])	effect on basal Sirt3 deacetylation activity (Sirt3 [8])
significantly decreased	no significant effects	specifically promoted	no significant effects	no significant effects	no significant effects	CN(C)CCN1CCN(c2ncccc2C2Nc3ccccc3-n3cccc32)CC1 (stereo not drawn) [Compound 38, 2-(4-(3-(4,5-Dihydropyrrolo[1,2-a]quinoxalin-4-yl)pyridin-2-yl)piperazin-1-yl)-N,N-dimethylethan-1-amine]	slight inhibition	strongly inhibited	strongly inhibited	strongly inhibited	strongly inhibited			
						c1cncc(C2Nc3ccccc3-n3cccc32)c1 (stereo not drawn) [UBCS039, reference compound]		strongly inhibited	strongly inhibited	strongly inhibited	strongly inhibited	no obvious effects	no obvious effects	no obvious effects
